Experimental data as given in PMC3269340, “Pharmacokinetics of memantine in rats and mice” (PLoS Currents, 2012).

Test: in vivo
Conditions: male, C57Bl/6, mouse
Method: The goals of these studies were to evaluate the PK of memantine (hydrochloride salt) in Sprague-Dawley rats and C57Bl/6 mice following a single intravenous bolus (iv; 1 mg eq./kg), oral gavage (po; 1 and 10 mg eq./kg), or subcutaneous (sc; 1 and 10 mg eq./kg) administration.
Sprague Dawley (SD) rats (138 adult males), and C57Bl/6 mice (140 adult males), were obtained (Hilltop Laboratories, Scottsdale, PA); 123 per species were used in the study and the remainder provided blank matrix. Animals were individually identified by tail markings and were acclimated to the study environment for 16-21 days prior to dose administration. Animals were individually housed in suspended wire caging, and were kept on a 12h/12h light/dark cycle except when interrupted for study procedures. Average room temperature was regulated in the range 18 to 29°C, average relative humidity of 30-70%, and an average daily airflow >10 fresh air changes/h. Animals were fed LabDiet^Ò Certified Rodent Diet 5002 Meal food ad libitum, except during fasting prior to dose administration, and had access to water ad libitum.
Memantine was dosed as a solution in physiological saline as a single dose via intravenous bolus (1 mg eq./kg), oral gavage (po; 1 and 10 mg eq./kg), or subcutaneous (sc; 1 and 10 mg eq./kg) administration. The concentration of memantine in the 1 mg eq./kg iv, po, and sc solutions dosed to rats was 1 mg eq./mL, and the dose volume was 1 mL/kg. The concentration of memantine for the same dose level administered to mice was 0.2 mg eq./mL, and the dose volume was 5 mL/kg. The concentration of memantine in the 10mg eq./kg po and sc solutions was 5 mg eq./mL and the dose volume was 2 mL/kg for both rats and mice.
Details of the dose administration, body weights, clinical observations, plasma and brain sample collection and preparation are not shown in this report but are available upon request. Blood (for preparation of plasma) and brain samples were collected at 0.08, 0.25, 0.5, 1, 2, 4, 8, and 24h post-dose.
Since all time points were terminal, mean memantine concentrations per time point were used to calculate the composite PK parameters by non-compartmental analysis using WinNonlin program, version 5.2 (Pharsight Corp., Mountain View, California). A model was selected based on the vascular (iv bolus) or extravascular (po or sc) routes of administration. For the iv route, plasma concentration at time zero was back extrapolated from the first two observed post dose plasma concentrations. For the po and sc routes, concentration at time zero was assumed to be zero. Plasma and tissue concentrations below the limit of quantitation were treated as absent samples for the purpose of calculating the mean plasma concentration values or for calculating PK parameters.
The area under the plasma concentration versus time curve (AUC) was calculated using the linear trapezoidal method (linear interpolation). When appropriate, the terminal elimination phase of the PK profile was estimated based on the best fit (r^2) using at least the last three observed concentrations. PK parameters describing the systemic exposure of memantine in plasma and brain were estimated from observed (rather than predicted) plasma/brain concentrations, the dosing regimen, the AUC, and the terminal elimination phase rate constant (kel) for each group. The portion of the AUC from the last measurable concentration to infinity was estimated from the equation Ct/kel, where Ct represents the last measurable concentration. The extrapolated portion of the AUC was used for the determination of AUC0-∞. The percent bioavailability (%F) was calculated by dividing the dose normalized extravascular plasma AUC0-∞ by the dose normalized iv plasma AUC0-∞ times 100. The bioavailability calculations assumed concentrations were in the linear range.
Concentrations of memantine in rat and mouse plasma and brain were determined using an LC-MS/MS assay developed at ABC Laboratories.

CC12CC3CC(C)(C1)CC(N)(C3)C2 [memantine]
Cmax and exposures increase, fold more than dose-proportional: ~ 1.5 fold
Cmax/Cmin ratios: > 100
Contribution of active transport to clearance: > 100%
delay in Tmax for brain compared to plasma: 15 to 90 min
elimination half-life: < 4 h
total systemic clearance, times higher than GFR: ~4.5 fold
C max/ C min ratio (10 mg/kg): 760
concentration at 24 h (10 mg/kg): 10 nM
Tmax (10 mg/kg, T max): 30 to 60 min
Tmax (Tmax after extravascular administration): 15 to 30 min
half-life (brain elimination half-lives after extravascular administrations): 130 to 183 min
half-life (elimination half-life): 180 to 240 min
Cmax (in vivo, iv, 1 mg/kg): 7.7 µM
Cmax (in vivo, sc, 1 mg/kg): 0.527 µM
Half-life (t½) (iv, 1 mg/kg): 2.98 h
MRT inf (iv, 1 mg/kg): 2.35 h
clearance (iv, 1 mg/kg): 63.5 mL/min/kg
half-life (iv, 1 mg/kg, Half-life (t½)): 118 min
Tmax (iv, 1 mg/kg, Observed Tmax): 60 min
half-life (iv, t 1/2): 180 min
bioavailability (po): 85%
Half-life (t½) (po, 1 mg/kg): 3.02 h
bioavailability (po, 1 mg/kg): 84.6%
AUC(0-inf) (po, 1 mg/kg): 1.2 µM·h
Cmax (po, 1 mg/kg, C max): 0.5 µM
half-life (po, 1 mg/kg, Half-life (t½)): 112 min
Tmax (po, 1 mg/kg, Observed Tmax): 30 min
Tmax (po, 1 mg/kg, T max): 30 min
Half-life (t½) (po, 10 mg/kg): 3.05 h
bioavailability (po, 10 mg/kg): 125%
AUC(0-inf) (po, 10 mg/kg): 18.2 µM·h
Cmax (po, 10 mg/kg, C max): 7.6 µM
half-life (po, 10 mg/kg, Half-life (t½)): 175 min
Half-life (t½) (sc, 1 mg/kg): 2.16 h
bioavailability (sc, 1 mg/kg): 97.8%
half-life (sc, 1 mg/kg, Half-life (t½)): 98.4 min
Cmax (sc, 1 mg/kg, Observed Cmax): 5.36 µM
Half-life (t½) (sc, 10 mg/kg): 3.00 h
bioavailability (sc, 10 mg/kg): 150%
half-life (sc, 10 mg/kg, Half-life (t½)): 184 min
